Laboratory results: publication PMC9124866, “Structure-Activity Relationships of Dopamine Transporter Pharmacological Chaperones” (Frontiers in Cellular Neuroscience, 2022)

Experiments:
WT DAT (YFP-HA-DAT) = target: T1, WT DAT (YFP-HA-DAT) (Homo sapiens, UniProt Q01959); experiment: Western blot of mature WT DAT protein levels; type: cell-based; conditions: overnight 100 μM
T1 construct: expressed in transfected cells; host or cells: HEK293
Method: Cells (1 × 10^6 cells/well) were seeded onto a 6-well plate and incubated for 24 h. Cells were then treated with drugs and incubated for 16 h. After the incubation period, cells were lysed in RIPA buffer supplemented with protease inhibitors (working concentrations: pepstatin A, 5 μg/mL; leupeptin, 10 μg/mL; aprotinin, 1.5 μg/mL; benzamidine, 0.1 μg/mL; PMSF, 0.1 mM) on ice. At 4°C, cell lysates were gently shaken for 15 min followed by centrifugation at 15,000 rpm for 15 min to pellet debris. The Pierce BCA protein assay kit (Thermo Fisher Scientific, Canada) was used to determine the protein concentration of the supernatant. To reach a concentration of 40 μg of protein per 20 μL, samples were diluted in fresh RIPA buffer with 12.5% Laemmli sample buffer and 2.5% β-Mercaptoethanol prior to being heated to 55°C. The protein was then loaded on a 7.5 or 10% SDS-PAGE gel and run at 100 V for approximately an hour or until the dye front reached the bottom of the gel. Next, protein was transferred to a PVDF membrane at 22 V for 16 h or 100 V for 1 h. Blots were blocked with LI-COR blocking buffer for 1 h and incubated for 1 h at room temperature with rabbit anti-GFP (1:1,000 dilution; Life Technologies, cat#A11122). After washing three times with TBST, blots were incubated with goat anti-rabbit IRDye-680RD secondary antibody (1:15,000; LI-COR, cat#926-68071). As a loading control, blots were incubated with mouse anti-GAPDH (1:5,000, Sigma-Aldrich, Canada, cat#G8795) prior to secondary antibody goat anti-mouse IRDye-800GR (1:5,000 dilution, Rockland, Limerick, PA, cat#610-132-007). All antibodies were diluted in LI-COR blocking buffer. Additionally, REVERT total protein staining (LI-COR, Lincoln, NE) was used as a loading control. […] Mature, fully glycosylated DAT (mDAT = 110 kDa) and immature, ER-resident DAT (iDAT = 75 kDa) were visualized using the Odyssey Imaging System (LI-COR, Lincoln, NE) and Image Studio Version 5.2 software (Supplementary Figure 1).
We next assessed whether drugs that increase DAT surface expression also increase total protein levels of DAT. Cells expressing YFP-HA-DAT were incubated with select test compounds and DAT protein levels were examined by western blot. The effects of the compounds were assessed on WT DAT and K590A DAT. The K590A mutant is a well-characterized ER-retained, trafficking-deficient DAT mutant ([Miranda et al., 2004]) that can be rescued by pharmacological chaperones ([Beerepoot et al., 2016]).
FIGURE 5 Effect of noribogaine, tetrahydroharmine, PAL-594, bicifadine, and RTI-20 on WT and K590A DAT expression. […] (B) Quantification of WT mDAT protein levels. […] (D) Quantification of K590A mDAT protein levels. […]

DAT = target: T2, DAT (Homo sapiens, UniProt Q01959); experiment: Dopamine uptake inhibition dose response of hit compounds (Figure 6); type: cell-based; conditions: doses 1 nM to 100 μM, normalized to vehicle
T2 construct: expressed in transfected cells
T2 sequence (Q01959 whole entry): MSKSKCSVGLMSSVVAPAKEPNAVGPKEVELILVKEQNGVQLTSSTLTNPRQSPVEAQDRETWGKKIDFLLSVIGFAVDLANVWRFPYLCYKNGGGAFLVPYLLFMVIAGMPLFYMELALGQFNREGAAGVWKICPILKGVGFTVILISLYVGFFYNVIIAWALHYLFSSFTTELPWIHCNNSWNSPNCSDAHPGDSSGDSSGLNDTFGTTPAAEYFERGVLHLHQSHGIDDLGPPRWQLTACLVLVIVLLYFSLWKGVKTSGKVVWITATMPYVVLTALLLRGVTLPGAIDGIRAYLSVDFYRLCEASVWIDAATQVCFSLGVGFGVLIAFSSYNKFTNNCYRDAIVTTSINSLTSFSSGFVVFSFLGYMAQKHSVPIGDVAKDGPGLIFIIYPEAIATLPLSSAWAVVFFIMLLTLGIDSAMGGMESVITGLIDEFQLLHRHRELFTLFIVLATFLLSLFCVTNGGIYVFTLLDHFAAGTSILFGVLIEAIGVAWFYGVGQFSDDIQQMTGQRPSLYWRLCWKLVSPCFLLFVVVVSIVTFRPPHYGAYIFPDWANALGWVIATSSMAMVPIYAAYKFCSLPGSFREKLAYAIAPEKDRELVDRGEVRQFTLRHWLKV
Method: Dopamine uptake inhibition was conducted using the Neurotransmitter Transporter Uptake Assay Kit (Molecular Devices, prod#R8173). Cells (1 × 10^5/well) were seeded into 96-well plates and incubated for 24 h. The cells were subjected to overnight drug treatment. The following day, wells were washed and incubated for 30 min with a mixture of 1X Hank’s Balanced Salt Solution (HBSS) and 0.1% Bovine Serum Albumin (BSA) Buffer. Dopamine uptake inhibitors were added during the incubation period. Following the incubation, the fluorescent dye was added, and the plate was immediately transferred to the bottom-read fluorescence microplate reader (Spectramax M3, Molecular Devices) for kinetic read-mode. The assay reads the amount of fluorescent activity which increases as fluorescent dye molecules are transported into the cells by the DAT. The read-out for this assay is the slope which equals the fluorescent measurements/time, ultimately denoting the uptake rate.
Data analysis was performed using GraphPad Prism (GraphPad Software, La Jolla, CA). Linear regression analysis was performed on βLAC time points to determine the slope, thus the rate of reaction, for comparison. Furthermore, the slope was also used to determine the degree of dopamine uptake in the dopamine uptake assays. […]

T1 sequence (Q01959 whole entry): as above

## CCC1CC2CC3c4[nH]c5ccc(O)cc5c4CCN(C2)C13 (centres unmarked) [Noribogaine, reference compound]
WT DAT (YFP-HA-DAT)
  mature WT DAT (mDAT) protein levels: significantly increase
DAT
  maximal dopamine uptake inhibition: 76%
